Test results: paper PMC2680961, “Homologous desensitization of signalling by the alpha (α) isoform of the human thromboxane A2 receptor: A specific role for nitric oxide signalling” (Biochimica et Biophysica Acta, 2007)
Residue numbers refer to the chain shown, from its start.

Legend:
TPα^S329,331A = molecular target: T1, TPα^S329,331A (Homo sapiens, UniProt P21731, S329A/S331A); assay: [3H]SQ29,548 radioligand binding, Scatchard analysis, HEK.TPα^S329,331A
T1 construct: expressed in transfected cells
T1 sequence (P21731 1-343 S329A/S331A): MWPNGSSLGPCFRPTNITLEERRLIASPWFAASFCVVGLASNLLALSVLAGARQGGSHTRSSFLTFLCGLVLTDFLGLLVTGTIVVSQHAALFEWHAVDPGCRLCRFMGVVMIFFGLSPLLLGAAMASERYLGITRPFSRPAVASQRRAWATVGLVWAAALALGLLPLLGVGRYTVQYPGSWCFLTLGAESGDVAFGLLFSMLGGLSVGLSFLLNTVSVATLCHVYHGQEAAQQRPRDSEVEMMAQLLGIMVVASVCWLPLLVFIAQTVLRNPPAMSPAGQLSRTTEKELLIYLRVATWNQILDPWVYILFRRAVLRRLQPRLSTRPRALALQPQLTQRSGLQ
Experimental: (§1) Cells were harvested by centrifugation at 500×g at 4 °C for 5 min and washed three times with ice-cold Ca^2+/Mg^2+-free phosphate-buffered saline (PBS). TP radioligand binding assays were carried out at 30 °C for 30 min in 100 μl reactions in the presence of 0–40 nM [^3H] […] Protein determinations were carried out using the Bradford assay.
(§2) Radioligand binding and Scatchard analysis data were analysed using GraphPad Prisim V4.0 programme (GraphPad Software Inc., San Diego CA, USA). Statistical analyses were carried out using the unpaired Student's t test using the Statworks Analysis Package. p-values ≤ 0.01 indicated statistically significant differences.

TPα^S331,T337A = molecular target: T2, TPα^S331,T337A (Homo sapiens, UniProt P21731, S331A/T337A); assay: [3H]SQ29,548 radioligand binding, Scatchard analysis, HEK.TPα^S331,T337A
T2 construct: expressed in transfected cells
T2 sequence (P21731 1-343 S331A/T337A): T1 sequence (P21731 1-343 S329A/S331A) with A329S, T337A
Experimental: as §1, §2

TP^S145A,Δ328 = molecular target: T3, TP^S145A,Δ328 (Homo sapiens, UniProt P21731, S145A); assay: Intracellular calcium mobilization, HEK.TP^S145A,Δ328 cells; assay type: cell-based
T3 construct: expressed in transfected cells
T3 sequence (P21731 1-328 S145A): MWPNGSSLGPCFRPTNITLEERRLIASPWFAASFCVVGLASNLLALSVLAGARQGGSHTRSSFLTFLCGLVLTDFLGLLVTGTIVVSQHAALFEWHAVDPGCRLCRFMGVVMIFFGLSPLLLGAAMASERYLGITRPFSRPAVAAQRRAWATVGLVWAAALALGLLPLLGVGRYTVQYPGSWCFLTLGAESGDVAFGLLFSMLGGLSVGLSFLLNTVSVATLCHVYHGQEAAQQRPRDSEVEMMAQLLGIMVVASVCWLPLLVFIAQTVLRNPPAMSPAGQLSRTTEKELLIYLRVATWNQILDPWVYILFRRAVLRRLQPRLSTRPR
Experimental: Measurement of intracellular calcium mobilization ([Ca^2+]i) in FURA2/AM preloaded HEK 293 cell lines (2 × 10^6 cells/dish), each transiently co-transfected with pADVA (10 μg), and pCMV:Gαq (25 μg), was carried out as previously described. To investigate the effect of GRK2/βARK1 on TP-mediated [Ca^2+]i mobilization, HEK.TPα or HEK.TPβ cells (2 × 10^6 cells/dish) were co-transfected with pADVA (10 μg), pCMV:Gαq (25 μg) along with pRK5:βARK1^495–689 (25 μg), encoding a dominant negative form of GRK2/βARK1[39]. […] For each measurement of [Ca^2+]i mobilization, aliquots of cells were diluted to 0.825 × 10^6 cells/ml in HBSSHB, 1 mM CaCl2 and FURA2 fluorescence was recorded (2 ml aliquots of cells) at 37^ °C with gentle stirring with a Perkin Elmer-Cetus LS50-B spectrofluorometer at excitation wavelengths of 340 nm and 380 nm and emission wavelength of 510 nm, respectively.
Cells were stimulated with the TP agonist U46619 (1 μM) and changes in [Ca^2+]i mobilization were monitored as a function of time. […]
The vehicle had no effect on U46619-mediated [Ca^2+]i mobilization. Calibration of the signal was performed in each sample by adding 0.2% Triton X-100 to obtain the maximal fluorescence ratio (Rmax) and then 1 mM EGTA to obtain the minimal fluorescence ratio (Rmin). […]

Row | Bmax (pmol/mg protein ± S.E.M.) (TPα^S329,331A) [pmol/mg protein] | Bmax (pmol/mg protein ± S.E.M.) (TPα^S331,T337A) [pmol/mg protein] | Δ[Ca2+]i, U46619-induced (TP^S145A,Δ328; primary 1 μM U46619 4 min) [nM] | Δ[Ca2+]i, U46619-induced (TP^S145A,Δ328; secondary 1 μM U46619 at 15 min) [nM] | Structure (SMILES)
1 | 2.9 ± 0.19 | 3.23 ± 0.03 |  |  | O=C(O)CCC/C=C\C[C@@H]1[C@H](CNNC(=O)Nc2ccccc2)[C@H]2CC[C@@H]1O2 [SQ29,548]
2 |  |  | 174 ± 7.7 | 170 ± 9.9 | CCCCC[C@H](O)/C=C/[C@@H]1[C@@H](C/C=C\CCCC(=O)O)[C@H]2CO[C@@H]1C2 [U46619]
